{"source": "patent US20240018483A1", "about": "“A DEVICE AND METHOD FOR VASCULARISING A CELL AGGREGATE” (AGENCY FOR SCIENCE, TECHNOLOGY AND RESEARCH, priority 2020, published 2024)", "tested_on": "Hep3b monoculture and triculture spheroids", "assay": "Sorafenib treatment of tumour spheroids in devices with and without vasculature (GFP signal of live cells)", "type": "cell-based", "settings": "10 μM Sorafenib for 7 days from day 5, vascularised vs non-vascularised, FIG. 9B", "experimental": "Next, the effect of Sorafenib treatment on the tumour spheroids and the vasculature was investigated. In this example, Hep3b monoculture and triculture spheroids were seeded in the devices with and without vasculature. At day 5, 10 μM of Sorafenib was used to treat the tumours for 7 days. GFP signal (representing the live cells) was quantified along the time.\nIn FIG. 9A, representative images from all the conditions are shown at Day 0 (starting of the drug treatment) and Day 5 post-treatment. FIG. 9B is a graph showing the GFP signal over time represented from 3 independent replicates."}
{"smiles": "CNC(=O)c1cc(Oc2ccc(NC(=O)Nc3ccc(Cl)c(C(F)(F)F)c3)cc2)ccn1", "note": "[Sorafenib]", "values": [{"measurement": "viability of spheroids (GFP signal representing the live cells)", "value": "viability of the vascularised spheroids is lower compared to the non-vascularised spheroids"}]}
